From patent US11492343B2, “Polymorph of flibanserin and preparation method thereof and use of same” (priority 2016, dated 2022)

Legend:
[1] = prior art WO2003/014079; cited from earlier work
[2] = Solubility of crystal forms in pH 6.8 buffer solution (HPLC of filtrate); type: physicochemical; settings: for Solubility in pH 6.8 buffer: 20 mg in 1 mL pH 6.8 buffer, suspension equilibrated for 1 hour, 0.45 μm filter, HPLC; for Solubility compared with crystal form A: in physiological solution
Method: The solubility of several new crystal forms prepared in the above examples and Form A (prepared according to the method of WO2003/014079) in a pH buffer solution (pH 6.8) was determined. Precisely weigh 20 mg Form I, Form II, Form V and Form A in a 2-mL glass vial, add 1 mL of pH 6.8 buffer, seal with cap, and mix on a rotating mixer. After the suspension was equilibrated for 1 hour, the mixture was filtered through a 0.45 μm needle filter, and the concentration of flibanserin in the filtrate was analyzed by HPLC to obtain the solubility of different crystal forms.

[3] = prior art; cited from earlier work

Structure (SMILES)	Stability under pressure and mechanical stress conditions [1]	Solubility in pH 6.8 buffer [2]	Solubility compared with crystal form A [2]	Solubility in water [3]
O=c1[nH]c2ccccc2n1CCN1CCN(c2cccc(C(F)(F)F)c2)CC1 [Form B]	low stability	–	–	–
O=c1[nH]c2ccccc2n1CCN1CCN(c2cccc(C(F)(F)F)c2)CC1 [Form II]	–	0.008 mg/mL	greater	–
O=c1[nH]c2ccccc2n1CCN1CCN(c2cccc(C(F)(F)F)c2)CC1 [Form V]	–	0.010 mg/mL	greater	–
O=c1[nH]c2ccccc2n1CCN1CCN(c2cccc(C(F)(F)F)c2)CC1 [Form A]	–	–	–	very small
O=c1[nH]c2ccccc2n1CCN1CCN(c2cccc(C(F)(F)F)c2)CC1 [Form I]	–	0.004 mg/mL	greater	–
